Test results published in patent US12473304B2, “Heterocyclic PAD4 inhibitors” (BRISTOL-MYERS SQUIBB COMPANY, priority 2020, dated 2025).

Target: human PAD4 (hPAD4) (Homo sapiens (Human), UniProt Q9UM07)
Assay: RFMS Human PAD4 Functional Assay 1
Type: biochemical
Settings: RFMS assay 1; 5 nM hPAD4, 250 μM BAEE substrate, 50 μM calcium, 37° C.
How it was run: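 Citrullination product read by RapidFire triple-quad MRM against a modified-citrulline internal standard, after TCA stop and 30 min phenyl glyoxal step at 37 °C. Reaction: 250 μM BAEE, 5 nM human PAD4, 90 min at 37 °C, pH 7.5 HEPES buffer with 50 μM calcium and 5 μM TPEN, following 30 min compound–enzyme preincubation (max 50 μM).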

human PAD4 (hPAD4), sequence (Q9UM07 whole entry): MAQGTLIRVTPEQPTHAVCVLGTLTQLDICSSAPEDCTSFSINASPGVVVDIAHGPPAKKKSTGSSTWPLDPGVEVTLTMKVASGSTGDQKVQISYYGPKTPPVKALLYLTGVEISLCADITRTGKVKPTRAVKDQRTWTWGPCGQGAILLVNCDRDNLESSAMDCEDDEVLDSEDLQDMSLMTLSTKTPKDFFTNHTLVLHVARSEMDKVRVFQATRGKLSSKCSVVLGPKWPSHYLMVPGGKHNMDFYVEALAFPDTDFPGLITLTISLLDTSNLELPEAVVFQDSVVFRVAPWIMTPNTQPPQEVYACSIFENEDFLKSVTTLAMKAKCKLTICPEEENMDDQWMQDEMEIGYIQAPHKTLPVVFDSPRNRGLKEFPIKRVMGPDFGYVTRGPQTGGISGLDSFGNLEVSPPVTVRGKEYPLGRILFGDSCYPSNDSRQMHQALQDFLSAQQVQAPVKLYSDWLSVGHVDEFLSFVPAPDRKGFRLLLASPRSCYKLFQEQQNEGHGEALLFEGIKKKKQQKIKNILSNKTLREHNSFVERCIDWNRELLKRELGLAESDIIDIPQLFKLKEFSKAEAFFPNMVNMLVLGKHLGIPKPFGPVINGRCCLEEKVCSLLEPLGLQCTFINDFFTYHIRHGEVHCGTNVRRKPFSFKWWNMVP

Row | Compound | IC50 [nM]
1 | Cc1c(-c2cc3ccc(C4CC4)nc3n2CC2CC2)nn2cc(C(=O)N3CC4CCC3[C@@H]4N)cc(F)c12 (stereo partly drawn) [Example 41, ((7R)-7-Amino-2-azabicyclo[2.2.1]heptan-2-yl)(2-(6-cyclopropyl-1-(cyclopropylmethyl)-1H-pyrrolo[2,3-b]pyridin-2-yl)-4-fluoro-3-methylpyrazolo[1,5-a]pyridin-6-yl)methanone] | 85
2 | COc1cc(-c2ccc3cc(-c4nn5cc(C(=O)N6CC7CCC6[C@@H]7N)cc(F)c5c4C)n(CC4CC4)c3n2)c(F)cn1 (stereo partly drawn) [Example 45, ((7R)-7-Amino-2-azabicyclo[2.2.1]heptan-2-yl)(2-(1-(cyclopropylmethyl)-6-(5-fluoro-2-methoxypyridin-4-yl)-1H-pyrrolo[2,3-b]pyridin-2-yl)-4-fluoro-3-methylpyrazolo[1,5-a]pyridin-6-yl)methanone] | 101
3 | Cc1c(-c2cc3ccc(-c4ccc(OC(F)F)cc4)nc3n2CC2CC2)nn2cc(C(=O)N3CC4CCC3[C@@H]4N)cc(F)c12 (stereo partly drawn) [Example 47, ((7R)-7-Amino-2-azabicyclo[2.2.1]heptan-2-yl)(2-(1-(cyclopropylmethyl)-6-(4-(difluoromethoxy)phenyl)-1H-pyrrolo[2,3-b]pyridin-2-yl)-4-fluoro-3-methylpyrazolo[1,5-a]pyridin-6-yl)methanone] | 1480
4 | COC1CN(c2ccc3cc(-c4nn5cc(C(=O)N6CC7CCC6[C@@H]7N)cc(F)c5c4C)n(CC4CC4)c3n2)C1 (stereo partly drawn) [Example 50, ((7R)-7-Amino-2-azabicyclo[2.2.1]heptan-2-yl)(2-(1-(cyclopropylmethyl)-6-(3-methoxyazetidin-1-yl)-1H-pyrrolo[2,3-b]pyridin-2-yl)-4-fluoro-3-methylpyrazolo[1,5-a]pyridin-6-yl)methanone] | 74
5 | Cc1c(-c2cc3ccc(N4CCC[C@@H](O)C4)nc3n2CC2CC2)nn2cc(C(=O)N3CC4CCC3[C@@H]4N)cc(F)c12 (some centres unmarked) [Example 51] | 109
6 | Cc1c(-c2cc3cccnc3n2CC2CC2)nn2cc(C(=O)N3C[C@H](N)C[C@@H](F)C3)cc(F)c12 [Example 52, ((3R,5R)-3-Amino-5-fluoropiperidin-1-yl)(2-(1-(cyclopropylmethyl)-1H-pyrrolo[2,3-b]pyridin-2-yl)-4-fluoro-3-methylpyrazolo[1,5-a]pyridin-6-yl)methanone] | 882
7 | Cc1c(-c2cc3ccc(Cl)nc3n2CC2CC2)nn2cc(C(=O)N3C[C@H](N)C[C@@H](F)C3)cc(F)c12 [Example 53, ((3R,5R)-3-Amino-5-fluoropiperidin-1-yl)(2-(6-chloro-1-(cyclopropylmethyl)-1H-pyrrolo[2,3-b]pyridin-2-yl)-4-fluoro-3-methylpyrazolo[1,5-a]pyridin-6-yl)methanone] | 446
8 | Cc1ccc2cc(-c3nn4cc(C(=O)N5C[C@H](N)C[C@@H](F)C5)cc(F)c4c3C)n(CC3CC3)c2n1 [Example 54, ((3R,5R)-3-Amino-5-fluoropiperidin-1-yl)(2-(1-(cyclopropylmethyl)-6-methyl-1H-pyrrolo[2,3-b]pyridin-2-yl)-4-fluoro-3-methylpyrazolo[1,5-a]pyridin-6-yl)methanone] | 358
9 | Cc1c(-c2cc3ccc(-c4cccc(O)c4F)nc3n2CC2CC2)nn2cc(C(=O)N3C[C@H](N)C[C@@H](F)C3)cc(F)c12 [Example 55, ((3R,5R)-3-Amino-5-fluoropiperidin-1-yl)(2-(1-(cyclopropylmethyl)-6-(2-fluoro-3-hydroxyphenyl)-1H-pyrrolo[2,3-b]pyridin-2-yl)-4-fluoro-3-methylpyrazolo[1,5-a]pyridin-6-yl)methanone] | 543
10 | Cc1c(-c2cc3ccc(-c4ccc(C(N)=O)c(F)c4)nc3n2CC2CC2)nn2cc(C(=O)N3C[C@H](N)C[C@@H](F)C3)cc(F)c12 [Example 56, 4-(2-(6-((3R,5R)-3-Amino-5-fluoropiperidine-1-carbonyl)-4-fluoro-3-methylpyrazolo[1,5-a]pyridin-2-yl)-1-(cyclopropylmethyl)-1H-pyrrolo[2,3-b]pyridin-6-yl)-2-fluorobenzamide] | 468
11 | Cc1c(-c2cc3ccc(C4CC4)nc3n2CC2CC2)nn2cc(C(=O)N3C[C@H](N)C[C@@H](F)C3)cc(F)c12 [Example 57, ((3R,5R)-3-Amino-5-fluoropiperidin-1-yl)(2-(6-cyclopropyl-1-(cyclopropylmethyl)-1H-pyrrolo[2,3-b]pyridin-2-yl)-4-fluoro-3-methylpyrazolo[1,5-a]pyridin-6-yl)methanone] | 781

Other lines, results leading:

Row | IC50 [nM] | Compound
12 | 9 | Cc1c(-c2cc3ccc(-c4ccc5c(c4)CNC5=O)nc3n2CC2CC2)nn2cc(C(=O)N3CC4CCC3[C@@H]4N)cc(F)c12 (stereo partly drawn) [Example 42, 5-(2-(6-((7R)-7-Amino-2-azabicyclo[2.2.1]heptane-2-carbonyl)-4-fluoro-3-methylpyrazolo[1,5-a]pyridin-2-yl)-1-(cyclopropylmethyl)-1H-pyrrolo[2,3-b]pyridin-6-yl)isoindolin-1-one]
13 | 150 | Cc1c(-c2cc3ccc(-c4ccn5c(C)nnc5c4)nc3n2CC2CC2)nn2cc(C(=O)N3CC4CCC3[C@@H]4N)cc(F)c12 (stereo partly drawn) [Example 43, ((7R)-7-Amino-2-azabicyclo[2.2.1]heptan-2-yl)(2-(1-(cyclopropylmethyl)-6-(3-methyl-[1,2,4]triazolo[4,3-a]pyridin-7-yl)-1H-pyrrolo[2,3-b]pyridin-2-yl)-4-fluoro-3-methylpyrazolo[1,5-a]pyridin-6-yl)methanone]
14 | 1480 | Cc1c(-c2cc3ccc(-c4ccc(OC(F)F)c(F)c4)nc3n2CC2CC2)nn2cc(C(=O)N3CC4CCC3[C@@H]4N)cc(F)c12 (stereo partly drawn) [Example 44, ((7R)-7-Amino-2-azabicyclo[2.2.1]heptan-2-yl)(2-(1-(cyclopropylmethyl)-6-(4-(difluoromethoxy)-3-fluorophenyl)-1H-pyrrolo[2,3-b]pyridin-2-yl)-4-fluoro-3-methylpyrazolo[1,5-a]pyridin-6-yl)methanone]
15 | 41 | Cc1c(-c2cc3ccc(-c4ccc5c(c4)C(=O)NC5)nc3n2CC2CC2)nn2cc(C(=O)N3CC4CCC3[C@@H]4N)cc(F)c12 (stereo partly drawn) [Example 46, 6-(2-(6-((7R)-7-Amino-2-azabicyclo[2.2.1]heptane-2-carbonyl)-4-fluoro-3-methylpyrazolo[1,5-a]pyridin-2-yl)-1-(cyclopropylmethyl)-1H-pyrrolo[2,3-b]pyridin-6-yl)isoindolin-1-one]
16 | 326 | Cc1c(-c2cc3ccc(-c4ccc(O)c(F)c4)nc3n2CC2CC2)nn2cc(C(=O)N3CC4CCC3[C@@H]4N)cc(F)c12 (stereo partly drawn) [Example 48, ((7R)-7-Amino-2-azabicyclo[2.2.1]heptan-2-yl)(2-(1-(cyclopropylmethyl)-6-(3-fluoro-4-hydroxyphenyl)-1H-pyrrolo[2,3-b]pyridin-2-yl)-4-fluoro-3-methylpyrazolo[1,5-a]pyridin-6-yl)methanone]
17 | 36 | Cc1c(-c2cc3ccc(-c4cccc(O)c4F)nc3n2CC2CC2)nn2cc(C(=O)N3CC4CCC3[C@@H]4N)cc(F)c12 (stereo partly drawn) [Example 49, ((7R)-7-Amino-2-azabicyclo[2.2.1]heptan-2-yl)(2-(1-(cyclopropylmethyl)-6-(2-fluoro-3-hydroxyphenyl)-1H-pyrrolo[2,3-b]pyridin-2-yl)-4-fluoro-3-methylpyrazolo[1,5-a]pyridin-6-yl)methanone]
